# In paper PMC8140105 (Scientific Reports, 2021):
# How the values were obtained:
# [1] = Chemical and protease-inactivated homogenate stability; type: in vitro ADME, ICR-CD-1 mice; settings: for Remaining amount of PapRIV: 1 hour at 37°C
# Experimental: The metabolization rate of the peptide varied between different biological matrices such as serum, brain tissue, liver tissue, kidney tissue and faeces. […] Different metabolites of the peptide could be identified. To exclude the possibility of non-enzymatic degradation, the chemical and protease-inactivated homogenate (by pre-heating the homogenate for 5 min at 95 °C) stability of the peptide was determined. Except for kidney tissue, PapRIV remained stable in protease-inactivated homogenates, pointing an enzymatic degradation in serum, liver, brain and faeces (Supplementary Table S1). In protease-inactivated kidney homogenate, approximately 45% of peptide loss after 60 min can be explained by protein interaction with some kidney specific proteins. In serum, six different metabolites were formed. The MS-spectra of the different metabolites formed and the metabolic profiles in different tissues are given in supplementary information (Supplementary Figs. S6, S7). DLPFEH is the main metabolite which is formed in all matrices, metabolization of the native peptide to this metabolite is the main contributor of the low half-lives observed in kidney tissue and serum (Supplementary Fig. S5). Also in faeces, the matrix in which PapRIV is produced by gut bacteria, metabolization to DLPFEH occurred.
# Supplementary method S3: Tissue homogenate preparation
# Preparation of Krebs-Henseleit buffer (pH 7.4) (KH-buffer)
# The powdered medium was dissolved in 900 mL water while stirring. To this solution, 0.3790 g CaCl2×2H2O and 2.098 g NaHCO3 was subsequently added while stirring. NaOH or HCl was used to adjust to pH 7.4. This solution was then further diluted to 1000 mL using ultrapure […]
# Preparation of tissue homogenates
# - The liver (n = 1), kidneys (n = 6), brains (n = 3), colons (n = 4) and faeces (0.196 g) of ICR-CD-1 mice were collected.
# - After cleaning and rinsing the tissues using ice-cold KH buffer, the tissues were cut in little pieces and transferred into a 50 mL tube to which 36 mL ice-cold KH buffer was added.
# - The tissues were then homogenized with at tissue homogenizer.
# - After the larger particles were allowed to settle for about 30 minutes at 5°C, approximately 25 mL of the middle layer was transferred into a 50 mL Falcon tube using a plastic pipette.
# - After shaking the homogenates, the homogenates were dispensed into 2 mL Eppendorf tubes, and stored at -35°C until use.
# - The protein content of the homogenates were determined using the Pierce Modified Lowry […]
# - Just before use, the homogenates were diluted to a protein concentration of 0.6 mg/mL (i.e.
# 300 µg / 500 µL) with KH buffer.
# - Into a 1.5 ml Protein LoBind tube, 900 µl of serum/tissue extract (500 µl of homogenate/serum and 400 µl of KH buffer, pH 7.4) was transferred.
# - After temperature-equilibration at 37°C for 15 min while shaking at 750 rpm, 100 µl of peptide solution (0.1 mg/mL) was added followed by continued incubation at 37°C (while shaking), with […] aliquots taken after 0, 5, 10, 30 and 60 minutes.
# - The aliquots were immediately transferred into 500 µl Protein LoBind Eppendorf tubes containing 100 µl of 1% V/V trifluoroacetic acid solution in water, heated for 5 minutes at 95°C, and cooled for 30 minutes in an ice-bath.
# - The samples were then centrifuged at 16,000 g for 5 minutes at 5°C.
# - The supernatants was then analyzed by UPLC-UV/MS.
# Supplementary table S1: Chemical and protease-inactivated homogenate stability of PapRIV […]
# Matrix Remaining amount of PapRIV (%)
# [2] = Capillary depletion; type: in vivo, ICR-CD-1 mice; settings: 125I-labelled, i.v., mice, 10 min after injection, n = 2
# Experimental: Briefly, 0.1 µmol of the lyophilized peptide was dissolved in 100 µL of phosphate buffer (pH 7.4, 25 mM). A Iodo-Gen coated tube (Thermo Scientific, Merelbeke, Belgium) was first of all rinsed with 1 mL of phosphate buffer. Subsequently, 50 µL of sodium iodide solution (1.1 µmol/mL) and 1 mCi of Na^125I solution (Perking Elmer, Zaventem, Belgium) were transferred into this Iodo-Gen coated tube. The oxidation reaction was allowed to proceed for six minutes at room temperature, after which the iodonium solution was transferred to 50 µL of peptide solution (1 mM). The iodination reaction of the peptide was allowed to proceed for another six minutes at room temperature. Finally, the iodinated peptide was purified using a silver filter (Thermo Scientific, Merelbeke, Belgium).
# We performed capillary depletion to determine whether the peptides, taken up by the brain, completely crossed the capillary wall into the tissue rather than just being trapped by and in the endothelium. […] Subsequently, the brain was collected, weighed and the radioactivity measured in the gamma counter for 5 min. […] The resulting solution was weighed and centrifuged in a swinging bucket rotor at 5400g for 30 min at 4 °C, after measuring the radioactivity in the gamma counter. Pellet (capillaries) and supernatant (parenchyma and fat tissues) were also collected, weighed and measured in a gamma counter. […]
# [3] = system: BV-2 microglia cells; experiment: ROS assay (fluorometric intracellular ROS kit); type: cell-based, murine; settings: BV-2 cells, 24 h treatment, fluorescence, n = 12
# Experimental: Microglia activation is accompanied by an increased reactive oxygen species (ROS) production. The ROS assay was performed using a fluorometric intracellular ROS kit according to the supplier’s protocol (Sigma-Aldrich, Diegem, Belgium). In brief, 4 × 10^4 cells/well were seeded in a black 96-well plate. Four hours post seeding, 100 µL of master reaction mix was added to the wells and incubated for 1 h after which cells were treated with PapRIV dissolved in PBS for 24 h. Fluorescence intensity was measured using an EnVision fluorometric plate reader at λex = 492/λem = 535 nm (Perkin Elmer, Zaventem, Belgium).
substance,measurement,setting,value
"SDLPFEH [PapRIV, heptapeptide (SDLPFEH) quorum sensing peptide originating from the Bacillus cereus group; synthetic, purchased from GL Biochem]",Remaining amount of PapRIV,[1]; Inactivated brain homogenate (pre-heated 5 min at 95 °C),101.0%
same,Remaining amount of PapRIV,[1]; Inactivated colon homogenate (pre-heated 5 min at 95 °C),99.2%
same,Remaining amount of PapRIV,[1]; Inactivated faeces homogenate (pre-heated 5 min at 95 °C),101.4%
same,Remaining amount of PapRIV,[1]; Inactivated kidney homogenate (pre-heated 5 min at 95 °C),53.8%
same,Remaining amount of PapRIV,[1]; Inactivated liver homogenate (pre-heated 5 min at 95 °C),101.6%
same,Remaining amount of PapRIV,[1]; Inactivated serum (pre-heated 5 min at 95 °C),99.0%
same,Remaining amount of PapRIV,"[1]; KH-buffer (Krebs-Henseleit, pH 7.4), chemical stability",99.8%
same,peptide loss,"[1]; protease-inactivated kidney homogenate, after 60 min, explained by protein interaction",approximately 45%
same,Capillary fraction,[2],13.08%
same,Parenchymal fraction,[2],86.92%
same,intracellular ROS,[3],increase
